Assay results: article PMC6980506, “Comparative pharmacokinetics and pharmacodynamics of the advanced Retinol-Binding Protein 4 antagonist in dog and cynomolgus monkey” (PLoS ONE, 2020)
Like-named read-outs stand apart in the source and are kept apart here.

Experiment: Single dose pharmacokinetic study in beagle dog
Type: in vivo
Settings: male, beagle, plasma; for concentration at 8 h / concentration at 12 h / concentration at 24 h / concentration at 36 h / concentration at 48 h / concentration at 0.25 h / concentration at 0.5 h / concentration at 1 h / concentration at 2 h / concentration at 4 h / concentration at 10 h: male beagle dog; for half-life: read-out: T1/2, apparent terminal half-life (converted)
Procedure: Pharmacokinetic studies were conducted in male beagle dogs and male cynomolgus monkeys at SRI International, Menlo Park, CA. General procedures for animal care and housing were in accordance with the National Research Council (NRC) Guide for the Care and Use of Laboratory Animals (1996) and the Animal Welfare Standards incorporated in 9 CFR Part 3, 1991 and complied with guidelines set forth by the ARVO Animal Statement for the Use of Animals in Ophthalmic and Vision Research. During the course of the PK experiments, cynomolgus monkeys were individually housed in stainless steel primary enclosures in an AAALAC-accredited facility. Animals were fed a commercial monkey chow, and supplemental food was provided (fresh fruits, vegetables, seeds, and nuts). Reverse osmosis-purified drinking water was available at all times. Cynomolgus monkeys were maintained on a 12:12 hour light:dark cycle at the 64–84°F temperature and 30–70% humidity. Monkeys had access to enrichment opportunities (grooming devices, foraging devices, activity panels and mirrors) and were provided auditory stimuli and human interaction enrichment throughout the study. Blood samples were collected by venipuncture of a peripheral vein. Animals were acclimated to the squeeze back mechanism in their home cage by repeated, short periods of restraint during general husbandry procedures for at least 2 weeks prior to dosing. Animal were not removed from their cages for collection, and no anesthesia/analgesic agents were used for blood collection. […] For PK experiments, beagle dogs were individually housed in enclosed run (≥ 4 ft x 6 ft). Dogs were exposed to their daily ration of food, Harlan Teklad 2025C Certified Global 25% Protein Dog Diet. Water was provided from the public water supply (municipal tap water) ad libitum. Dogs were maintained on a 12:12 hour light:dark cycle at the 72–73°F temperature and 40–71% humidity. Every effort was made to minimize, if not eliminate, pain and suffering in all animals in this study. No restraining devices were used in blood collecting procedures. Dogs were gentle hand-held to restrain by trained technicians with the dogs foreleg extended for sample collection of blood from cephalic vein. Animals were awake during blood sample collection with no anesthesia/analgesic agents used, and positive reinforcement by the technician was provided following collection. […] All dogs were released back to the colony after the study was completed. Male beagle dogs and male cynomolgus monkey received a single i.v. dose of a test compound at 0.5 mg kg^−1 (dog) and 1 mg kg^−1 (monkey) or a single p.o. dose of a test compound of at 2 mg kg^−1 (dog) and 5 mg kg^−1 (monkey). The number of animals that was used in PK experiments is 3 per study group. Intravenous administration vehicle was 3% DMA/45% PEG300/12% ethanol/40% sterile water; p.o. vehicle was 2% Tween 80 in 0.9% saline. […] Blood samples were processed to plasma. Following protein extraction with acetonitrile, compound concentrations in plasma were measured by LC-MS/MS. The plasma drug level data were analyzed using WinNonlin software package; Model 201 (for i.v. bolus administration);was used for the analysis of i.v. data, and Model 200 (for extravascular administration) was used for the analysis of the p.o. data. Aliquots of pre-dose plasma samples, as well as aliquots of plasma PK samples, were used for the analysis of the plasmabiomarker, RBP4.

[1] = dog, iv, 0.5 mg/kg, iv 0.5 mg/kg, read-out: Plasma level, Mean
[2] = dog, iv, 0.5 mg/kg, iv 0.5 mg/kg, read-out: Plasma level, Individual animals
[3] = dog, po, 2 mg/kg, po 2 mg/kg, read-out: Plasma level, Individual animals
[4] = dog, po, 2 mg/kg, po 2 mg/kg, read-out: Plasma level, Mean
[5] = iv, Dog, 0.5 mg kg^−1 i.v., mean ± SD, n=3
[6] = po, Dog, 2.0 mg kg^−1 p.o., mean ± SD, n=3

Cc1cc(C(=O)O)nc(N2C[C@H]3C[C@@H](c4ccccc4C(F)(F)F)C[C@H]3C2)n1 [BPN-14136]
concentration at 8 h [1]: 0.209 µg/mL
concentration at 12 h [1]: 0.107 µg/mL
concentration at 24 h [2]: 0.169 µg/mL
concentration at 24 h [1]: 0.175 µg/mL
concentration at 36 h [2]: 0.0333 µg/mL
concentration at 36 h [1]: 0.041 µg/mL
concentration at 48 h [2]: 0.0928 µg/mL
concentration at 48 h [1]: 0.0959 µg/mL
bioavailability (dog, oral, 2 mg kg^−1, Dog, 2.0 mg kg^−1 p.o. vs 0.5 mg kg^−1 i.v., read-out: %F, bioavailability): ~84%
concentration at 0.25 h [3]: 7.1 µg/mL
concentration at 0.25 h [4]: 7.09 µg/mL
concentration at 0.5 h [3]: 6.34 µg/mL
concentration at 0.5 h [4]: 6.72 µg/mL
concentration at 1 h [3]: 6.63 µg/mL
concentration at 1 h [4]: 5.94 µg/mL
concentration at 2 h [3]: 3.6 µg/mL
concentration at 2 h [4]: 4.12 µg/mL
concentration at 4 h [3]: 1.79 µg/mL
concentration at 4 h [4]: 2.14 µg/mL
concentration at 8 h [3]: 0.855 µg/mL
concentration at 8 h [4]: 0.904 µg/mL
concentration at 10 h [3]: 0.407 µg/mL
concentration at 10 h [4]: 0.559 µg/mL
concentration at 12 h [3]: 0.453 µg/mL
concentration at 12 h [4]: 0.532 µg/mL
concentration at 24 h [3]: 0.33 µg/mL
concentration at 24 h [4]: 0.383 µg/mL
concentration at 36 h [3]: 0.0824 µg/mL
concentration at 36 h [4]: 0.0942 µg/mL
concentration at 48 h [4]: 0.126 µg/mL
AUC(0-inf) [5]: 10.7 ± 0.5 µg·h/mL
AUC(0-t) [5]: 10.3 ± 0.5 µg·h/mL
clearance (iv, Dog, 0.5 mg kg^−1 i.v., mean ± SD, n=3, read-out: CL, total body clearance (converted)): 0.047 L/h/kg
Cmax (iv, Dog, 0.5 mg kg^−1 i.v., mean ± SD, n=3, read-out: Cmax, maximum observed concentration at first time point): 2.7 ± 0.1 µg/mL
half-life [5]: 2.6 ± 0.2 h
Vd (iv, Dog, 0.5 mg kg^−1 i.v., mean ± SD, n=3, read-out: Vss, volume of distribution at steady state): 0.622 ± 0.0034 L/kg
AUC(0-inf) [6]: 35.9 ± 4.4 µg·h/mL
AUC(0-t) [6]: 35.4 ± 0.4 µg·h/mL
Tmax [6]: 0.33 ± 0.14 h
Cmax (po, Dog, 2.0 mg kg^−1 p.o., mean ± SD, n=3, read-out: Cmax): 7.5 ± 0.2 µg/mL
half-life [6]: 2.9 ± 0.4 h
